Laboratory results from patent publication US20230233545A1, “TREATMENT OF ATRIAL DYSFUNCTION” (MyoKardia, Inc., priority 2020, published 2023).

Columns and labels:
LA skinned muscle fibers = assay: Myocardial force generation, LA skinned muscle fibers (tension-pCa, stiffness); format: biochemical, Yucatan mini-pig; details: at 3 μM
Experimental: The ability of Compound I to increase myocardial force generation at a given Ca2+ concentration was evaluated using LA (n=6) and LV (n=6) skinned muscle fibers prepared from three different Yucatan mini-pig hearts. In short, as previously described, 3 hearts were harvested, rinsed and shipped in cold cardioplegia solution (Custodiol® HTK; Essential Pharmaceuticals, LLC, NC, USA). Upon receipt, LV (papillary) and LA muscle fibers were dissected at 4° C. in a high-relaxing solution (100 mM BES, 10 mM EGTA, 6.57 mM MgCl2, 10 mM creatine phosphate, 6.22 mM ATP, 41.89 mM Kprop, 2.5 μM pepstatin, 1 μM leupeptin, 50 μM PMSF, 5 mM NaN3, pH 7.0). Fiber bundles were cut and skinned (in a high-relaxing solution containing 1% Triton X-100), fitted with aluminum foil t-clips, and mounted on a mechanics apparatus (Aurora Scientific Inc., ON, Canada). Sarcomere length was set to 2.0 μm. Steady-state isometric tension and stiffness (via a 3% stretch over 250 ms) were measured at increasing concentrations of Ca^2+ (pCa 8.0 to 4.5, adjusted to maintain 180 mM ionic strength) twice, first in the absence (control, 1% DMSO) and then in the presence of Compound I (3 μM, 1% DMSO). […] Active and passive stiffness were calculated by measuring the slope of the early (Ca^2+ dependent) and late phases, respectively, of the tension response to the brief 3% stretches. […]

[1] = target: T1, left ventricular (LV) myofibrils (Sus scrofa, UniProt P79293); assay: Steady-state ATPase (ATP turnover rate), LV myofibrils; format: biochemical, Yucatan mini-pig
T1 construct: from tissue; host or cells: left ventricle of Yucatan mini-pig heart
Experimental: The ability of Compound I to increase myocardial ATP turnover rates selectively was evaluated using both left atrial (LA) and left ventricular (LV) myofibrils prepared from Yucatan mini-pig hearts, as well as subfragment-1 (51) myosins from cardiac (recombinant human), skeletal (rabbit psoas) and smooth (chicken gizzard) muscles. Pig hearts were harvested, and the left atria/ventricles were freshly excised, dissected, frozen in liquid nitrogen and stored at −80° C. Myofibrils and S1 myosins were prepared as described in Kawas et al., J Biol Chem. (2017) 292(40:16571-7. Both atrial (n=4 hearts, 2 replicates each) and ventricular (n=3 hearts, 2 replicates each) myofibrils were assayed at a constant concentration of 1.0 mg/mL (at Ca^2+ sensitivity [pCa] 6.0). Rabbit skeletal (0.2 μM, n=8), chicken gizzard (0.5 n=10) and recombinant human cardiac (0.5 n=10) S1 myosin were assayed with a constant concentration of actin (14 μM).
Steady-state ATPase measurements at varying concentrations of Compound I (0-50 μM, in 2% DMSO) were conducted using a coupled enzyme system utilizing pyruvate kinase and lactate dehydrogenase. This enzyme system couples the formation of ADP to the oxidation of NADH leading to an absorbance change at 340 nm. The buffering system used in all experiments was 12 mM PIPES, 2 mM MgCl2 and 1 mM dithiothreitol (DTT) at pH 6.8 (PM12 buffer). All measurements were carried out at 25° C. using a plate reader (SpectraMax; Molecular Devices, LLC, CA, USA) to monitor the change in absorbance as a function of time; data were normalized to a per-second scale as described in Green et al., Science (2016) 351(6273):617-21. Data are presented as means (standard deviation [SD]) in text or as mean±standard error of the mean (SEM) in figures; half maximal effective concentration (EC50) values (and 95% confidence intervals [CIs]) were calculated using a four-parameter-fit model (GraphPad Prism, GraphPad Software Inc., CA, USA).

T1 sequence (P79293 whole entry): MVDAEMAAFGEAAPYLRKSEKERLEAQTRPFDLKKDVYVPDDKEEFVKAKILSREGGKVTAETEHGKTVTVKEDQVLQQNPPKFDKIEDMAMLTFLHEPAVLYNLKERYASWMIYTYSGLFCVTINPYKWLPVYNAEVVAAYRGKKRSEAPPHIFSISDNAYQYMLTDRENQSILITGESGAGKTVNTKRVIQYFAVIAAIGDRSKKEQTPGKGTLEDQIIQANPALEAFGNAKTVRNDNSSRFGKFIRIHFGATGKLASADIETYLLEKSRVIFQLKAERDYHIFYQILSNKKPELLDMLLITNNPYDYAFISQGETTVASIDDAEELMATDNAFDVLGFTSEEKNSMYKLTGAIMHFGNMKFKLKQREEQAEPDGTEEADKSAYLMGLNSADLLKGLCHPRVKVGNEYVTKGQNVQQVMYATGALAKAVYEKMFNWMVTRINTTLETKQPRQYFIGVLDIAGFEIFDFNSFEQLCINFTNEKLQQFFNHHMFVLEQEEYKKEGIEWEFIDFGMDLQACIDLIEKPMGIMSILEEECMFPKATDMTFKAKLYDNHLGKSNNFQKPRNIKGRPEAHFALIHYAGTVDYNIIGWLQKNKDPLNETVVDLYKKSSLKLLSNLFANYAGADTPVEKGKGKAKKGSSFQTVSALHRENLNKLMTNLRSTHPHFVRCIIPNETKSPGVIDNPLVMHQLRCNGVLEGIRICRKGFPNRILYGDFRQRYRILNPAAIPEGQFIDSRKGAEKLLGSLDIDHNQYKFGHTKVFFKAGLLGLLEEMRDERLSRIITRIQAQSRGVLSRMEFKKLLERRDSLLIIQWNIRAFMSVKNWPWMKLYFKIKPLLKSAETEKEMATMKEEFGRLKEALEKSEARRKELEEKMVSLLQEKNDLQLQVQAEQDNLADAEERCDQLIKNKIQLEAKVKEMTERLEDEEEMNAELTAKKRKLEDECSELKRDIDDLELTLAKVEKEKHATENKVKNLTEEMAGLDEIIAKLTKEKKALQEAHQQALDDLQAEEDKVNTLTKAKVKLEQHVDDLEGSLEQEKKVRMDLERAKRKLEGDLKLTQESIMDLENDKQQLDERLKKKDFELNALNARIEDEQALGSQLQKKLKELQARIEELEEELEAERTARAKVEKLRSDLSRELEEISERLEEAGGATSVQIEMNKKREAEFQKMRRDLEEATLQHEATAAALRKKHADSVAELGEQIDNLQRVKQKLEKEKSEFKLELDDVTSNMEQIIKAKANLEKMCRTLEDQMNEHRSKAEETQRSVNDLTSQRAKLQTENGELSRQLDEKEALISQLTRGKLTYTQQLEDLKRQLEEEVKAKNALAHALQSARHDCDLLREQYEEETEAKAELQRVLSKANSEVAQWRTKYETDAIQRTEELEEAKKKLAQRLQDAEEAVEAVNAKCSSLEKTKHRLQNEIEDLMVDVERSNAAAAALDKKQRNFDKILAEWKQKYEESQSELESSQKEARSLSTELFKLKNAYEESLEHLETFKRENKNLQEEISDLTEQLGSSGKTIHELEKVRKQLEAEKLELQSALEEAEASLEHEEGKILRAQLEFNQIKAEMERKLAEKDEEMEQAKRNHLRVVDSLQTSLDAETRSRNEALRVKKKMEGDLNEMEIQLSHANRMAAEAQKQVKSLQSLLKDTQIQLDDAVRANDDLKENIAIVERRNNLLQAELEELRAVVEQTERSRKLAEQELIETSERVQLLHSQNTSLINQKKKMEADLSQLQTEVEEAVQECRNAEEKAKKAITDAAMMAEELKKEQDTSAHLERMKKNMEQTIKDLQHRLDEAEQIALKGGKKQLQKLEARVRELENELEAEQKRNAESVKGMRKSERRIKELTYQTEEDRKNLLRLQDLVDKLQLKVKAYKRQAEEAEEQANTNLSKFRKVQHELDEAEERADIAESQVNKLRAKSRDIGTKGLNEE

SMILES: Cn1cc(S(=O)(=O)[C@@](C)(F)C2CCN(C(=O)Nc3ccon3)CC2)c(C(F)F)n1 [Compound I, (R)-4-(1-((3-(difluoromethyl)-1-methyl-1H-pyrazol-4-yl)sulfonyl)-1-fluoroethyl)-N-(isoxazol-3-yl)piperidine-1-carboxamide]
- passive stiffness, atrial skinned fibers (LA skinned muscle fibers): without altering passive stiffness
- maximal force-generation capability, atrial skinned fibers (LA skinned muscle fibers; data not shown): without altering
- increase in ATPase, LV porcine myofibrils ([1]; at 3 μM): 85%
- increase in ATPase turnover rate, ventricular myofibrils ([1]; at 50 μM, SD ±0.3): 3.0 fold
- AC50 ([1]; pCa 6.0, 25° C., 95% CI 3.7-27.5, read-out: half maximal active concentration [AC50], ATPase turnover rate, ventricular myofibrils): 6 µM
